Structures can show the parent of a compound that is named as a salt. Where two headings read alike, the source gives them in different places. Bounds are passed on as bounds.

Usually Ki stands for a measure of affinity in units of concentration, obtained from inhibition or displacement. As a reminder, the IC50 is the concentration needed to halve the response being measured.

Assay [1] addresses human FLAP (Homo sapiens (Human), UniProt P20292). As to the kind of experiment: FLAP binding assay (HTRF format). A digest of the protocol:
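Samples were run in duplicate on each of two assay plates, the results were averaged, and the signal was expressed as an HTRF ratio.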
In general terms: TR-FRET usually uses a lanthanide donor and a delayed reading to cut background.

Assay [2] concerns leukotriene pathway in human whole blood (LTB4 levels). Description: Human whole blood assay (A23187-stimulated LTB4). It counts as cell-based. The note with it: Homo sapiens, read-out: LTB4 IC50 1:1. A digest of the protocol: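 Heparinised human whole blood diluted 1:1 in RPMI, pre-incubated 15 min at 37° Celsius with compound, then stimulated with A23187 (7 μg/mL) for 30 min at 37° Celsius. Plasma LTB4 measured by immunoassay kit; IC50 from 4-parameter fit; single replicate per plate, at least one healthy donor.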

Setting [3] is: human whole blood diluted 1:1, A23187-stimulated.
The mark [4] stands for this setting: human FLAP wild type, HTRF format, average of two plates, duplicates.
The mark [5] stands for this setting: human whole blood diluted 1:1 in RPMI, A23187-stimulated LTB4.

human FLAP, sequence (P20292 whole entry): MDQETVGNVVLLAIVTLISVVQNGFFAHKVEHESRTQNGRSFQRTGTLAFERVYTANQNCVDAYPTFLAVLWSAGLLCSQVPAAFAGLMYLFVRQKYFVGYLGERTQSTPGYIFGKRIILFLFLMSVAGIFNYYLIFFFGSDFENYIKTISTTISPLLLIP

Regarding `CCS(=O)(=O)Nc1ccccc1-c1ccc(-c2cnc3[nH]ccc3n2)c(F)c1` [Example 491, N-[3′-Fluoro-4′-(5H-pyrrolo[2,3-b]pyrazin-2-yl)biphenyl-2-yl]ethanesulfonamide], in assay [1] (wild type FLAP, HTRF format), the Ki is 15 nM. Besides, the IC50 in assay [2] (setting [3]) is 215 nM.
For `CC(C)(C)NS(=O)(=O)c1ccccc1-c1ccc(-c2csc(N)n2)c(F)c1` [Example 577, 4′-(2-Amino-1,3-thiazol-4-yl)-N-tert-butyl-3′-fluorobiphenyl-2-sulfonamide], in that order: 10 nM and 91 nM.
The compound `Nc1cnc(-c2ccc(-c3ccccc3S(=O)(=O)N3CCC(n4cn[nH]c4=O)CC3)cc2F)cn1` [Example 129, 4-(1-{[4′-(5-Aminopyrazin-2-yl)-3′-fluorobiphenyl-2-yl]sulfonyl}piperidin-4-yl)-2,4-dihydro-3H-1,2,4-triazol-3-one] came in with a Ki in assay [1] (setting [4]) of 4 nM. The IC50 in assay [2] (setting [5]) worked out at 534 nM.
The like results for `Nc1ncc(-c2ccc(-c3ccccc3S(=O)(=O)CCCS(=O)(=O)C3CCCCC3)cc2F)cn1` [Example 319, 5-(2′-{[3-(Cyclohexylsulfonyl)propyl]sulfonyl}-3-fluorobiphenyl-4-yl)pyrimidin-2-amine] were, in that order, 204 nM and 3260 nM.
The like results for `Nc1cnc(-c2ccc(-c3ccc(C(F)(F)F)cc3S(N)(=O)=O)cc2F)cn1` [Example 206, 4′-(5-Aminopyrazin-2-yl)-3′-fluoro-4-(trifluoromethyl)biphenyl-2-sulfonamide] were, in that order, 2 nM and 43 nM.
For `CC(=O)NCCNS(=O)(=O)c1ccccc1-c1ccc(-c2cnc(N)cn2)c(F)c1` [Example 155, N-[2-({[4′-(5-Aminopyrazin-2-yl)-3′-fluorobiphenyl-2-yl]sulfonyl}amino)ethyl]acetamide], in that order: 12 nM and 103 nM.
As for `CC1(NS(=O)(=O)c2ccccc2-c2ccc(-c3ccc(N)nc3)c(F)c2)CCC1` [Example 353, 4′-(6-Aminopyridin-3-yl)-3′-fluoro-N-(1-methylcyclobutyl)-[, 1′-biphenyl]-2-sulfonamide], in assay [1] (setting [4]), the affinity corresponds to a Ki of 1 nM. Besides, in assay [2] (setting [5]), the IC50 worked out at 20 nM.
As for `Nc1ncc(-c2ccc(-c3ccccc3S(=O)(=O)N3CCC(F)(F)CC3)cn2)cn1` [Example 682, 5-(5-{2-[(4,4-Difluoropiperidin-1-yl)sulfonyl]phenyl}pyridin-2-yl)pyrimidin-2-amine trifluoroacetic acid salt], in assay [1] (wild type FLAP, HTRF format), the Ki came to 224 nM. Besides, the IC50 in assay [2] (setting [3]) is 264 nM.
For `CC(C)(CO)NS(=O)(=O)c1ccccc1-c1ccc(-c2cnc(N)nc2)c(F)c1` [Example 280, 4′-(2-Aminopyrimidin-5-yl)-3′-fluoro-N-(2-hydroxy-1,1-dimethylethyl)biphenyl-2-sulfonamide trifluoroacetic acid salt], the Ki in assay [1] (read-out: FLAP Binding wild type HTRF Ki) was 3 nM. Moreover, the IC50 in assay [2] (setting [5]) stood at 87 nM.
In the case of `Nc1cnc(-c2ccc(-c3ccccc3SCCNC(=O)c3ccccc3)cc2F)cn1` [Example 204, N-(2-{[4′-(5-Aminopyrazin-2-yl)-3′-fluorobiphenyl-2-yl]sulfanyl}ethyl)benzamide], the affinity in assay [1] (setting [4]), expressed as Ki, was 4 nM. In addition, the IC50 in assay [2] (setting [5]) came out at 128 nM.
Consider `CCN(CC)S(=O)(=O)c1ccccc1-c1ccc(-c2ccc(N)nc2)c(F)c1` [Example 343, 4′-(6-Aminopyridin-3-yl)-N,N-diethyl-3′-fluoro-[1,1′-biphenyl]-2-sulfonamide], for which the inhibition constant (Ki) in assay [1] (setting [4]) is 4 nM. The IC50 in assay [2] (setting [5]) was found to be 57 nM.
On to `CCN(CC)S(=O)(=O)c1ccccc1-c1ccc(-c2cnc(N)cn2)c(F)c1` [Example 47, 4′-(5-Aminopyrazin-2-yl)-N,N-diethyl-3′-fluorobiphenyl-2-sulfonamide], for which the Ki in assay [1] (setting [4]) was 1 nM. Also, the IC50 in assay [2] (setting [5]) amounted to 17 nM.
The compound `C[C@@H](O)CNS(=O)(=O)c1ccccc1-c1cnc(-c2cnc(N)nc2)c(F)c1` [Example 673, 2-[6-(2-Aminopyrimidin-5-yl)-5-fluoropyridin-3-yl]-N-[(2R)-2-hydroxypropyl]benzenesulfonamide] yielded a Ki in assay [1] (wild type FLAP, HTRF format) of 134 nM. Moreover, the IC50 in assay [2] (setting [3]) was determined as 101 nM.
For the compound `Nc1ncc(-c2ccc(-c3ccc(C(F)(F)F)cc3S(N)(=O)=O)cc2F)cn1` [Example 322, 4′-(2-Aminopyrimidin-5-yl)-3′-fluoro-4-(trifluoromethyl)biphenyl-2-sulfonamide], the affinity in assay [1] (setting [4]), expressed as Ki, was 32 nM. Moreover, in assay [2] (setting [5]), the half-inhibitory concentration (IC50) was 138 nM.
The compound `COc1c(-c2ccccc2)ccc(-c2cnc(N)cn2)c1F` [Example 834, 5-(3-Fluoro-2-methoxybiphenyl-4-yl)pyrazin-2-amine] had a Ki in assay [1] (wild type FLAP, HTRF format) of 48.9 nM. Also, the IC50 in assay [2] (setting [3]) was found to be 1090 nM.
The like results for `Nc1cnc(-c2ccc(-c3cccnc3OC3CCC3)cc2F)cn1` [Example 405, 5-{4-[2-(Cyclobutyloxy)pyridin-3-yl]-2-fluorophenyl}pyrazin-2-amine] were, in that order, 100 nM and 2710 nM.
The compound `CC(C)(C)NS(=O)(=O)c1ccccc1-c1ccc(-c2ccc3nccnc3c2)c(F)c1` [Example 420, N-tert-Butyl-3′-fluoro-4′-quinoxalin-6-ylbiphenyl-2-sulfonamide] gave an inhibitory constant (Ki) in assay [1] (wild type FLAP, HTRF format) of 86 nM. The IC50 in assay [2] (setting [3]) turned out to be 3280 nM.
The compound `Nc1ccc(-c2ccc(-c3ccccc3S(=O)(=O)N[C@@H](c3ccccc3)C(F)(F)F)cc2F)cn1` [Example 351, (S)-4′-(6-Aminopyridin-3-yl)-3′-fluoro-N-(2,2,2-trifluoro-1-phenylethyl)-[1,1′-biphenyl]-2-sulfonamide] yielded a Ki in assay [1] (setting [4]) of 17 nM. Further, the IC50 in assay [2] (setting [5]) was 297 nM.
In assay [1] (wild type FLAP, HTRF format), `N#Cc1cccnc1COc1ccccc1-c1ccc(-c2cnc(N)cn2)c(F)c1` [Example 531, 2-({[4′-(5-Aminopyrazin-2-yl)-3′-fluorobiphenyl-2-yl]oxy}methyl)pyridine-3-carbonitrile] displayed a Ki of 8 nM. In assay [2] (setting [3]), the IC50 came to 323 nM.
Regarding `Nc1cnc(-c2ccc(-c3ccc(C(F)(F)F)cc3C(=O)N3CCOCC3)cc2F)cn1` [Example 521, 5-[3-Fluoro-2′-(morpholin-4-ylcarbonyl)-4′-(trifluoromethyl)biphenyl-4-yl]pyrazin-2-amine], the affinity in assay [1] (wild type FLAP, HTRF format) corresponds to a Ki of 5 nM. Also, the IC50 in assay [2] (setting [3]) was 13 nM.
Take `CC(C)(C#N)S(=O)(=O)c1ccccc1-c1ccc(-c2cnc(N)cn2)c(F)c1` [Example 735, 2-{[4′-(5-Aminopyrazin-2-yl)-3′-fluorobiphenyl-2-yl]sulfonyl}-2-methylpropanenitrile]: the affinity in assay [1] (wild type FLAP, HTRF format) corresponds to a Ki of 32 nM. Besides, the IC50 in assay [2] (setting [3]) amounted to 272 nM.
In assay [1] (setting [4]), `CS(=O)(=O)Nc1ccccc1-c1ccc(-c2cnc(N)cn2)c(F)c1` [Example 2, N-[4′-(5-Aminopyrazin-2-yl)-3′-fluorobiphenyl-2-yl]methanesulfonamide] registered a Ki of 286 nM. Besides, in assay [2] (setting [5]), the IC50 was determined as 358 nM.
Take `CC(C)(C)NS(=O)(=O)c1ccccc1-c1ccc(-c2cnc(N)c(C#N)n2)c(F)c1` [Example 434, 4′-(5-Amino-6-cyanopyrazin-2-yl)-N-tert-butyl-3′-fluorobiphenyl-2-sulfonamide]: the affinity in assay [1] (wild type FLAP, HTRF format), expressed as Ki, was 1 nM. Also, the IC50 in assay [2] (setting [3]) was 36 nM.
For `Nc1cnc(-c2ccc(-c3cccnc3S(=O)(=O)CC3CCOCC3)cc2F)cn1` [Example 824, 5-(2-Fluoro-4-(2-(((tetrahydro-2H-pyran-4-yl)methyl)sulfonyl)pyridine-3-yl)pyrazin-2-amine formic acid salt], in that order: 10.3 nM and 18 nM.
In assay [1] (setting [4]), `Nc1cnc(-c2ccc(-c3ccccc3S(=O)(=O)N3C[C@H]4C[C@@H]3CN4)cc2F)cn1` [Example 130, 5-(2′-((1R,4R)-2,5-Diazabicyclo[2.2.1]heptan-2-ylsulfonyl)-3-fluoro-[1,1′-biphenyl]-4-yl)pyrazin-2-amine] came in with a Ki of 129 nM. Also, in assay [2] (setting [5]), the IC50 is 633 nM.
Consider `CC(C)Oc1ncccc1-c1ccc(-c2cnc(N)cn2)c(F)c1` [Example 401, 5-{2-Fluoro-4-[2-(1-methylethoxy)pyridin-3-yl]phenyl}pyrazin-2-amine], for which the inhibitory constant (Ki) in assay [1] (wild type FLAP, HTRF format) stood at 158 nM. Also, in assay [2] (setting [3]), the IC50 was 538 nM.
For the compound `CC(NS(=O)(=O)c1ccccc1-c1ccc(-c2cnc(N)cn2)c(F)c1)C(F)(F)F` (racemic) [Example 8, racemic 4′-(5-Aminopyrazin-2-yl)-3′-fluoro-N-(2,2,2-trifluoro-1-methylethyl)biphenyl-2-sulfonamide], the inhibition constant Ki in assay [1] (setting [4]) was 1 nM. For the same compound, the IC50 in assay [2] (setting [5]) was 12 nM.
The like results for `CN([C@@H]1CCCNC1)S(=O)(=O)c1ccccc1-c1ccc(-c2cnc(N)cn2)c(F)c1` [Example 114, (R)-4′-(5-Aminopyrazin-2-yl)-3′-fluoro-N-methyl-N-piperidin-3-ylbiphenyl-2-sulfonamide] were, in that order, 12 nM and 221 nM.
`Nc1cnc(-c2ccc(-c3ccccc3S(=O)(=O)N3CCC(O)(C(F)(F)F)CC3)cc2F)cn1` [Example 55, 1-{[4′-(5-Aminopyrazin-2-yl)-3′-fluorobiphenyl-2-yl]sulfonyl}-4-(trifluoromethyl)piperidin-4-ol] had a Ki in assay [1] (setting [4]) of 1 nM. The IC50 in assay [2] (setting [5]) came to 1230 nM.
For `Nc1cnc(-c2ccc(-c3ccccc3S(=O)(=O)NCC3CCC3)cc2F)cn1` [Example 9, 4′-(5-Aminopyrazin-2-yl)-N-(cyclobutylmethyl)-3′-fluorobiphenyl-2-sulfonamide], in that order: 3 nM and 60 nM.
The like results for `Nc1ncc(-c2ccc(-c3ccccc3S(=O)(=O)N3CCC[C@H]3CO)cc2F)cn1` [Example 277, [(2S)-1-{[4′-(2-Aminopyrimidin-5-yl)-3′-fluorobiphenyl-2-yl]sulfonyl}pyrrolidin-2-yl]methanol trifluoroacetic acid salt] were, in that order, 52 nM and more than 1000 nM.

Source of the values: patent publication US9079866B2, “Flap modulators” (JANSSEN PHARMACEUTICA NV, priority 2013, dated 2015).
